Key:
Motilin receptor [1] = biological target: T1, Motilin receptor (Homo sapiens, UniProt O43193); assay: Antagonist activity at MLNR (unknown origin)
Motilin receptor [2] = biological target: T1, Motilin receptor; assay: Agonist activity at MLNR (unknown origin)
[3] = biological target: Growth hormone secretagogue receptor type 1 (Homo sapiens, UniProt Q92847); assay: Agonist activity at GHSR (unknown origin)
Growth hormone secretagogue receptor type 1, sequence (Q92847 whole entry): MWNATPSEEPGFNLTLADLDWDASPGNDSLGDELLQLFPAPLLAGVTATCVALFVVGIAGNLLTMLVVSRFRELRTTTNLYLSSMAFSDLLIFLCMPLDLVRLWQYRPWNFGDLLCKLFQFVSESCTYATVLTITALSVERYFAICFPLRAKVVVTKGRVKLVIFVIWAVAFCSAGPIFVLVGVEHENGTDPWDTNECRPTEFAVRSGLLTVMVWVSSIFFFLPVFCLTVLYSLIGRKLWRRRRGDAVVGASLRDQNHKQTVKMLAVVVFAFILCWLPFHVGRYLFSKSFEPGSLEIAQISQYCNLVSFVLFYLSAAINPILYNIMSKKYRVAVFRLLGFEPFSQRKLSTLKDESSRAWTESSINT

T1 sequence (O43193 whole entry): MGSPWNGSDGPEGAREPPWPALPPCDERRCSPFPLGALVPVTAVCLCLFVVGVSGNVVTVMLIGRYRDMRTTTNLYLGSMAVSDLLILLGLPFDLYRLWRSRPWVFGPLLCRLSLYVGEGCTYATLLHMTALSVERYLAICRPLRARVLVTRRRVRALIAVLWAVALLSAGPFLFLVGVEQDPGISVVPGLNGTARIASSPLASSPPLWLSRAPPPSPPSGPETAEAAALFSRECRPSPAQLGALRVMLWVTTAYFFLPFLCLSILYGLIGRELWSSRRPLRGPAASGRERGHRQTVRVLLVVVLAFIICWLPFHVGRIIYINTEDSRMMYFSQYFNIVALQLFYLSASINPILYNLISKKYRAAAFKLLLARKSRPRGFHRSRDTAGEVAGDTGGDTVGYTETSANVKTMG

Row | Compound | IC50 (Motilin receptor [1]) [nM] | further results
1 | CC[C@H]1OC(=O)[C@H](C)[C@@H](O[C@H]2C[C@@](C)(OC)[C@@H](O)[C@H](C)O2)[C@H](C)[C@@H](O[C@@H]2O[C@H](C)C[C@H](N(C)C(C)C)[C@H]2O)[C@]2(C)CC(C)=C(O2)[C@H](C)C(=O)[C@]1(C)OC | 3.98 | –
2 | CCNC(=O)[C@H](Cc1ccc(O)c(C(C)(C)C)c1)C(N)C(=O)[C@H](C(C)C)N(C)C(=O)[C@H](Cc1ccc(F)cc1)NC (some centres undefined) | – | Ki (Motilin receptor [2]): 2.63 nM
3 | C[C@@H]1CN(Cc2ccc(-c3cccnc3C(=O)N3CCC(Nc4ccc(F)cc4)CC3)cc2)C[C@H](C)N1 | 3.98 | –
4 | COc1cccc(CCN(Cc2ccccc2-c2ccc(CN3C[C@@H](C)N[C@@H](C)C3)cc2)C(=O)NC2CCCCC2)c1 | – | EC50 [3]: 126 nM
